Results on 53 molecules are retold here after US6403600B1, “Methoximinophenylacetic acid amides” (Bayer Aktiengesellschaft, priority 1998, dated 2002).

Broadly, the chromatographic logP is lipophilicity estimated from chromatographic retention. Low readings indicate lower lipophilicity, high ones higher lipophilicity. In general, logP refers to the decadic logarithm of the partition coefficient of the neutral form, usually between octanol and water. A high value points to higher lipophilicity.

The nature of the series: logP determination by HPLC (EEC-Directive 79/831 Annex V. A8). In kind it is physicochemical. The note with it: gradient method, acetonitrile/0.1% aqueous phosphoric acid.
Turning to `CON=C(C(=O)N(C)SC(=O)OC)c1ccccc1COc1ccccc1C` [Example 1, 2-methoximino-2-[2-(methylphenoxy)-methylphenyl]-N-methyl-N-methoxycarbonylthio-acetamide], the chromatographic logP was determined as 4.25.

Molecule `CON=C(C(=O)N(C)SC(F)(Cl)Cl)c1ccccc1Oc1ncnc(Oc2ccccc2Br)c1F` [Example 2, 2-{2-[6-(2-bromo-phenoxy)-5-fluoro-pyrimidin-4-yloxy]-phenyl}-N-(dichlorofluoro-methyl-sulphanyl)-2-methoxyimino-N-methylacetamide] returned a chromatographic logP of 5.1.

`CON=C(C(=O)N(C)SC(F)(Cl)Cl)c1ccccc1Oc1ncnc(Oc2ccccc2Cl)c1F` [Example 3] showed a logP of 5.05.

`CON=C(C(=O)NC#N)c1ccccc1COc1ccccc1C` [Example 4]: the logP is on record as 3.34.

With `CON=C(C(=O)N(C)SC(F)(Cl)Cl)c1ccccc1COc1ccccc1C` [Example 5], the logP is on record as 5.35.

`CON=C(C(=O)N(C)SC(Cl)(Cl)Cl)c1ccccc1COc1ccccc1C` [Example 6] had a logP of 5.56.

For the molecule `CON=C(C(=O)N(C)Sc1ccc(F)cc1)c1ccccc1COc1ccccc1C` [Example 7], the logP turned out to be 5.11.

`CON=C(C(=O)N(C)SN(C)C(=O)OC)c1ccccc1COc1ccccc1C` [Example 8]: the logP was found to be 4.24.

The molecule `CCCCN(CCCC)SN(C)C(=O)C(=NOC)c1ccccc1COc1ccccc1C` [Example 9] had a logP of 6.83.

On to `CON=C(C(=O)N(C)C#N)c1ccccc1COc1ccccc1C` [Example 10], for which the logP came to 3.67.

As to `CON=C(C(=O)N(C)Sc1ccc(OC)cc1)c1ccccc1COc1ccccc1C` [Example 11], the logP is listed as 4.98.

Take `CCOC(=O)N(C)C(=O)C(=NOC)c1ccccc1COc1ccccc1C` [Example 12]: the logP amounted to 4.46.

`CON=C(C(=O)N(C)Sc1ccc(C(=O)OC)cc1)c1ccccc1COc1ccccc1C` [Example 13] registered a logP of 4.89.

In the case of `CON=C(C(=O)N(C)C(=O)OCC(C)C)c1ccccc1COc1ccccc1C` [Example 14], the logP is 5.21.

With `CCCCOP(=O)(OC)N(C)C(=O)C(=NOC)c1ccccc1COc1ccccc1C` (centres unmarked) [Example 15], the logP is 4.53.

On to `CON=C(C(=O)N(C)C(=O)N(C)SC(F)(Cl)Cl)c1ccccc1COc1ccccc1C` [Example 16], for which the logP was 5.08.

With `CON=C(C(=O)N(C)C(=O)N(C)C)c1ccccc1COc1ccccc1C` [Example 17], the logP is 3.38.

In turn, `CON=C(C(=O)N(C)S(C)(=O)=O)c1ccccc1COc1ccccc1C` [Example 18] showed a logP of 3.82.

`CCOCN(C)C(=O)C(=NOC)c1ccccc1COc1ccccc1C` [Example 19]: the logP stood at 4.02.

The molecule `CON=C(C(=O)N(C)Sc1ccc(Cl)cc1)c1ccccc1COc1ccccc1C` [Example 20] yielded a logP of 5.53.

Consider `CON=C(C(=O)N(C)Sc1ccccc1)c1ccccc1COc1ccccc1C` [Example 21], for which the logP came to 5.11.

In turn, `CON=C(C(=O)N(C)Sc1cccc(C(F)(F)F)c1)c1ccccc1COc1ccccc1C` [Example 22] yielded a logP of 5.5.

In the case of `CON=C(C(=O)N(C)Sc1ccc(OC(F)(F)F)c(Cl)c1)c1ccccc1COc1ccccc1C` [Example 23], the logP was found to be 5.99.

In the case of `CON=C(C(=O)N(C)Sc1ccc(C)cc1)c1ccccc1COc1ccccc1C` [Example 24], the logP is listed as 5.45.

Molecule `CON=C(C(=O)N(C)Sc1ccc(Cl)c(C(F)(F)F)c1)c1ccccc1COc1ccccc1C` [Example 25] displayed a logP of 5.8.

`CON=C(C(=O)N(C)C(=O)C(=O)OC)c1ccccc1COc1ccccc1C` [Example 26] gave a logP of 3.96.

The molecule `CCSC(=O)N(C)C(=O)C(=NOC)c1ccccc1COc1ccccc1C` [Example 27] registered a logP of 4.91.

Molecule `CON=C(C(=O)NSC(F)(Cl)Cl)c1ccccc1COc1ccccc1C` [Example 28] had a logP of 4.32.

`CCOC(=O)N(C(=O)OCC)C(=O)C(=NOC)c1ccccc1COc1ccccc1C` [Example 29] gave a logP of 4.42.

`CCOC(=O)N(SC(F)(Cl)Cl)C(=O)C(=NOC)c1ccccc1COc1ccccc1C` [Example 30] yielded a logP of 5.35.

For the molecule `CNC(=O)N(C)C(=O)C(=NOC)c1ccccc1COc1ccccc1C` [Example 31], the logP is listed as 3.29.

Turning to `CON=C(C(=O)N(C)SC(F)(Cl)Cl)c1ccccc1CON=C(C)c1cccc(C(F)(F)F)c1` [Example 32], the logP amounted to 5.74.

`CON=C(C(=O)N(C)C(=O)OC)c1ccccc1COc1ccccc1C` [Example 33] registered a logP of 4.11.

The molecule `CON=C(C(=O)N(C)C(=O)N(SC(F)(Cl)Cl)c1ccc(Cl)cc1)c1ccccc1COc1ccccc1C` [Example 34] came in with a logP of 6.21.

For `CCS(=O)(=O)N(C)C(=O)N(C)C(=O)C(=NOC)c1ccccc1COc1ccccc1C` [Example 35], the logP is recorded as 4.05.

The molecule `CON=C(C(=O)N(C)C(=O)N1CCOCC1)c1ccccc1COc1ccccc1C` [Example 36] returned a logP of 3.32.

`CON=C(C(=O)N(C)C(=O)OCCBr)c1ccccc1COc1ccccc1C` [Example 37] displayed a logP of 4.6.

As for `CCOC(=O)N(C)C(=O)C(=NOC)c1ccccc1CON=C(C)c1cccc(C(F)(F)F)c1` [Example 38], the logP is recorded as 4.91.

The molecule `CCOCN(C)C(=O)C(=NOC)c1ccccc1CON=C(C)c1cccc(C(F)(F)F)c1` [Example 39] yielded a logP of 4.58.

Regarding `CON=C(C(=O)N(C)SC(=O)OC)c1ccccc1CON=C(C)c1cccc(C(F)(F)F)c1` [Example 40], the logP is 4.75.

`CCOC(=O)N(C)C(=O)C(=NOC)c1ccccc1Oc1ccccc1` [Example 41] yielded a logP of 3.59.

`CCOCN(C)C(=O)C(=NOC)c1ccccc1Oc1ccccc1` [Example 42] returned a logP of 3.36.

Take `CON=C(C(=O)N(C)SC(=O)OC)c1ccccc1Oc1ccccc1` [Example 43]: the logP was 3.59.

As to `CON=C(C(=O)N(C)SC(F)(Cl)Cl)c1ccccc1Oc1ccc(OC(F)(F)F)cc1Cl` [Example 44], the logP was 5.87.

Molecule `CON=C(C(=O)N(C)SN(C)C(=O)C(=NOC)c1ccccc1COc1ccccc1C)c1ccccc1COc1ccccc1C` [Example 45] gave a chromatographic logP of 6.1.

Consider `CON=C(C(=O)N(C)SC(F)(Cl)Cl)c1ccccc1Oc1ccccc1` [Example 47], for which the logP was found to be 4.75.

The molecule `CON=C(C(=O)N(C)Sc1ccc(OC)cc1)c1ccccc1Oc1ccccc1` [Example 48] registered a logP of 4.31.

Consider `CON=C(C(=O)N(C)C(=O)N(C)SC(F)(Cl)Cl)c1ccccc1Oc1ccccc1` [Example 49], for which the logP is 4.53.

`CON=C(C(=O)N(C)SC(F)(F)F)c1ccccc1Oc1ccccc1` [Example 50] displayed a logP of 4.38.

For the molecule `CON=C(C(=O)N(SC(F)(Cl)Cl)SC(F)(Cl)Cl)c1ccccc1COc1ccccc1C` [Example 51], the logP was 6.61.

Turning to `CCSN(C)C(=O)C(=NOC)c1ccccc1COc1ccccc1C` [Example 52], the logP was determined as 4.55.

Turning to `CCN(SC(F)(Cl)Cl)C(=O)C(=NOC)c1ccccc1COc1ccccc1C` [Example 53], the logP was 5.74.

`CON=C(C(=O)N(C)SC)c1ccccc1COc1ccccc1C` [Example 54] returned a logP of 4.22.
